# Source: patent publication US20250296959A1, “B7-H3 TARGETING PEPTIDES AND CONSTRUCTS THEREOF” (Mariana Oncology Inc., priority 2024, published 2025)
# Starred links: 1 amine or outer side, 2 acyl side, 3 side chain; linkers in the order of their positions; H or OH if unused. Positions of bridges follow the written chain, without caps; N, C: chain ends. Non-standard residues stand in square brackets, D forms with d. Residues, ends and D or L forms follow the SMILES beside them. *: point of attachment. Ala(piperidin-4-yl) = O=C([C@H](CC1CCN([*:3])CC1)N[*:1])[*:2]; DOTA = O=C(O)CN1CCN(CC(=O)O)CCN(CC(=O)*)CCN(CC(=O)O)CC1; Trp(5-F) = N[C@@H](Cc1c[nH]c2ccc(F)cc12)C(=O)O; Trp(5-Me) = Cc1ccc2[nH]cc(C[C@H](N)C(=O)O)c2c1; 1Nal = N[C@@H](Cc1cccc2ccccc12)C(=O)O; Ala(4-THP) = N[C@@H](CC1CCOCC1)C(=O)O; Phe(2-OH) = N[C@@H](Cc1ccccc1O)C(=O)O; Phe(2-F) = N[C@@H](Cc1ccccc1F)C(=O)O; AEF = NCCOc1ccc(C[C@H](N)C(=O)O)cc1; Gly(4-THP) = N[C@H](C(=O)O)C1CCOCC1; Val(3-OH) = CC(C)(O)[C@H](N)C(=O)O; 4Pal = N[C@@H](Cc1ccncc1)C(=O)O; Aad = N[C@@H](CCCC(=O)O)C(=O)O; Tle = CC(C)(C)[C@H](N)C(=O)O; hLeu = CC(C)CC[C@H](N)C(=O)O; NMeS = CN[C@@H](CO)C(=O)O; Nle = CCCC[C@H](N)C(=O)O; CH2 = C([*:1])[*:2]
# Target: T1, human 4lg B7-H3 (Homo sapiens, UniProt Q5ZPR3)
# T1 sequence (Q5ZPR3 29-534): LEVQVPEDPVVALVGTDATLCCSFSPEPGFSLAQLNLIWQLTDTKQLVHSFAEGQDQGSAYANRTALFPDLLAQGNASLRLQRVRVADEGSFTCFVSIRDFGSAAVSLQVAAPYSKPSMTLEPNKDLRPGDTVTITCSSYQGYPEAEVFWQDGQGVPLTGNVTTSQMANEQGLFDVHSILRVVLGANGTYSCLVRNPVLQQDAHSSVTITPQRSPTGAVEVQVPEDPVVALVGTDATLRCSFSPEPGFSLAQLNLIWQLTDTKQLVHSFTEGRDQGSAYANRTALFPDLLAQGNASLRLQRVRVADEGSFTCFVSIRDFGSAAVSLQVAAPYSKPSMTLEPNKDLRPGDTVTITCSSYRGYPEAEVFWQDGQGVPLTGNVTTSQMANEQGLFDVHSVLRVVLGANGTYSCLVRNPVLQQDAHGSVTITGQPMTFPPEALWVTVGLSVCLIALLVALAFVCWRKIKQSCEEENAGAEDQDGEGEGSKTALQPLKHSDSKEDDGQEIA
# Assay: Affinity determination by surface plasmon resonance (SPR) to 4Ig B7-H3
# Conditions: SPR KD—25° C., 4Ig B7-H3; 25° C. flow cell temperature
row,Kd [nM],SMILES
1,< 1,"CC(=O)N[C@@H](CCC(C)C)C(=O)N[C@@H](Cc1ccc(O)cc1)C(=O)N[C@H]1CSSC[C@@H](C(=O)N[C@@H](Cc2c[nH]c3ccc(F)cc23)C(=O)N[C@@H](Cc2ccccc2)C(=O)N[C@H](C(=O)N[C@H](CCCCNC(=O)CN2CCN(CC(=O)O)CCN(CC(=O)O)CCN(CC(=O)O)CC2)C(=O)O)[C@@H](C)O)NC(=O)[C@H](Cc2ccc(O)cc2)NC(=O)[C@H](C(C)C)NC(=O)[C@H](CC(=O)O)NC(=O)[C@H](CC2CCOCC2)NC(=O)[C@H](CCCCN)NC(=O)CNC(=O)[C@H](C(C)(C)C)NC1=O [compound 332, Ac-hLeu-Y-C-Tbg-G-K-ThpA-D-V-Y-C-5FW-F-Thr-dLys(DOTA)-COOH] (Ac-[hLeu]YC[Tle]GK[Ala(4-THP)]DVYC[Trp(5-F)]FT[dK](DOTA)-OH; disulfide 3-11)"
2,100 to 300,"CC(=O)N[C@@H](CCC(C)C)C(=O)N[C@@H](Cc1ccc(O)cc1)C(=O)N[C@H]1CSCSC[C@@H](C(=O)N[C@@H](Cc2cccc3ccccc23)C(=O)N[C@@H](Cc2ccccc2)C(=O)N(C)[C@@H](CO)C(=O)N[C@H](CCCCNC(=O)CN2CCN(CC(=O)O)CCN(CC(=O)O)CCN(CC(=O)O)CC2)C(N)=O)NC(=O)[C@H](Cc2ccc(O)cc2)NC(=O)[C@H](C(C)C)NC(=O)[C@H](CC(=O)O)NC(=O)[C@H](Cc2ccncc2)NC(=O)[C@H](CCCCN)NC(=O)CNC(=O)[C@H](C(C)(C)C)NC1=O [compound 297, Ac-hLeu-Y-C(CH2)-Tbg-G-K-4PyA-D-V-Y-C-1Nal-F-NMeSer-dLys(DOTA)-CONH2] (Ac-[hLeu]YC[Tle]GK[4Pal]DVYC[1Nal]F[NMeS][dK](DOTA)-NH2; linker 3-11 via CH2)"
3,100 to 300,"CC(=O)N[C@@H](CCC(C)C)C(=O)N[C@H](C(=O)N[C@H]1CSSC[C@@H](C(=O)N[C@@H](Cc2c[nH]c3ccc(F)cc23)C(=O)N[C@@H](Cc2ccccc2)C(=O)N(C)[C@@H](CO)C(=O)N[C@H](CCCCNC(=O)CN2CCN(CC(=O)O)CCN(CC(=O)O)CCN(CC(=O)O)CC2)C(N)=O)NC(=O)[C@H](Cc2ccc(O)cc2)NC(=O)[C@H](C(C)C)NC(=O)[C@H](CC(=O)O)NC(=O)[C@H](Cc2ccc(O)cc2)NC(=O)[C@H](CC2CCNCC2)NC(=O)CNC(=O)[C@H](C(C)C)NC1=O)C1CCOCC1 [compound 213, Ac-hLeu-ThpG-C-V-G-PipAla-Y-D-V-Y-C-5FW-F-NMeSer-dLys(DOTA)-CONH2] (Ac-[hLeu][Gly(4-THP)]CVG[Ala(piperidin-4-yl)]YDVYC[Trp(5-F)]F[NMeS][dK](DOTA)-NH2; disulfide 3-11)"
4,< 1,"CC(=O)N[C@@H](CCC(C)C)C(=O)N[C@@H](Cc1ccc(O)cc1)C(=O)N[C@H]1CSSC[C@@H](C(=O)N[C@@H](Cc2c[nH]c3ccc(F)cc23)C(=O)N[C@@H](Cc2ccccc2F)C(=O)N[C@H](C(=O)N[C@H](CCCCNC(=O)CN2CCN(CC(=O)O)CCN(CC(=O)O)CCN(CC(=O)O)CC2)C(N)=O)[C@@H](C)O)NC(=O)[C@H](Cc2ccc(O)cc2)NC(=O)[C@H](C(C)C)NC(=O)[C@H](CC(=O)O)NC(=O)[C@H](Cc2ccc(O)cc2)NC(=O)[C@H](CCCCN)NC(=O)CNC(=O)[C@H](C(C)C)NC1=O [compound 164, Ac-hLeu-Y-C-V-G-K-Y-D-V-Y-C-5FW-2FPhe-Thr-dLys(DOTA)-CONH2] (Ac-[hLeu]YCVGKYDVYC[Trp(5-F)][Phe(2-F)]T[dK](DOTA)-NH2; disulfide 3-11)"
5,1 to 10,"CCCC[C@H](NC(C)=O)C(=O)N[C@@H](Cc1ccc(O)cc1)C(=O)N[C@H]1CSSC[C@@H](C(=O)N[C@@H](Cc2c[nH]c3ccc(F)cc23)C(=O)N[C@@H](Cc2ccccc2)C(=O)N[C@H](C(=O)N[C@H](CCCCNC(=O)CN2CCN(CC(=O)O)CCN(CC(=O)O)CCN(CC(=O)O)CC2)C(N)=O)[C@@H](C)O)NC(=O)[C@H](Cc2ccc(O)cc2)NC(=O)[C@H](C(C)C)NC(=O)[C@H](CC(=O)O)NC(=O)[C@H](Cc2ccc(O)cc2)NC(=O)[C@H](CCCCN)NC(=O)CNC(=O)[C@H](C(C)C)NC1=O [compound 133, Ac-Nle-Y-C-V-G-K-Y-D-V-Y-C-5FW-F-Thr-dLys(DOTA)-CONH2] (Ac-[Nle]YCVGKYDVYC[Trp(5-F)]FT[dK](DOTA)-NH2; disulfide 3-11)"
6,10 to 100,"CCCC[C@H](NC(C)=O)C(=O)N[C@@H](Cc1ccc(O)cc1)C(=O)N[C@H]1CSSC[C@@H](C(=O)N[C@@H](Cc2c[nH]c3ccccc23)C(=O)N[C@@H](Cc2ccccc2)C(=O)N[C@H](C(=O)N[C@H](CCCCNC(=O)CN2CCN(CC(=O)O)CCN(CC(=O)O)CCN(CC(=O)O)CC2)C(=O)O)[C@@H](C)O)NC(=O)[C@H](Cc2ccc(O)cc2)NC(=O)[C@H](C(C)C)NC(=O)[C@H](CC(=O)O)NC(=O)[C@H](Cc2ccc(O)cc2)NC(=O)[C@H](CCCC(=O)O)NC(=O)CNC(=O)[C@H](C(C)C)NC1=O [compound 103, Ac-Nle-Y-C-V-G-HomoGlu-Y-D-V-Y-C-W-F-Thr-dLys(DOTA)-COOH] (Ac-[Nle]YCVG[Aad]YDVYCWFT[dK](DOTA)-OH; disulfide 3-11)"
7,< 1,"CC(=O)N[C@@H](CCC(C)C)C(=O)N[C@@H](Cc1ccc(O)cc1)C(=O)N[C@H]1CSSC[C@@H](C(=O)N[C@@H](Cc2c[nH]c3ccc(F)cc23)C(=O)N[C@@H](Cc2ccccc2)C(=O)N2CCC[C@H]2C(N)=O)NC(=O)[C@H](Cc2ccc(O)cc2)NC(=O)[C@H](C(C)C)NC(=O)[C@H](CC(=O)O)NC(=O)[C@H](Cc2ccc(OCCNC(=O)CN3CCN(CC(=O)O)CCN(CC(=O)O)CCN(CC(=O)O)CC3)cc2)NC(=O)[C@H](CC2CCNCC2)NC(=O)CNC(=O)[C@H](C(C)C)NC1=O [compound 301, Ac-hLeu-Y-C-V-G-PipAla-AEF(DOTA)-D-V-Y-C-5FW-F-Pro-CONH2] (Ac-[hLeu]YCVG[Ala(piperidin-4-yl)][AEF](DOTA)DVYC[Trp(5-F)]FP-NH2; disulfide 3-11)"

# Same assay, conditions: SPR KD—37° C., 4Ig B7-H3; 37° C. flow cell temperature
row,Kd [nM],SMILES
1,1 to 10,"CC(=O)N[C@@H](CCC(C)C)C(=O)N[C@@H](Cc1ccc(O)cc1)C(=O)N[C@H]1CSSC[C@@H](C(=O)N[C@@H](Cc2c[nH]c3ccc(F)cc23)C(=O)N[C@@H](Cc2ccccc2)C(=O)N[C@H](C(=O)N[C@H](CCCCNC(=O)CN2CCN(CC(=O)O)CCN(CC(=O)O)CCN(CC(=O)O)CC2)C(=O)O)C(C)(C)O)NC(=O)[C@H](Cc2ccccc2O)NC(=O)[C@H](C(C)C)NC(=O)[C@H](CC(=O)O)NC(=O)[C@H](CC2CCOCC2)NC(=O)[C@H](CC2CCNCC2)NC(=O)CNC(=O)[C@H](C(C)(C)C)NC1=O [compound 467, Ac-hLeu-Y-C-Tbg-G-PipAla-ThpA-D-V-20HPhe-C-5FW-F-hydroxyVal-dLys(DOTA)-COOH] (Ac-[hLeu]YC[Tle]G[Ala(piperidin-4-yl)][Ala(4-THP)]DV[Phe(2-OH)]C[Trp(5-F)]F[Val(3-OH)][dK](DOTA)-OH; disulfide 3-11)"
2,1 to 10,"CC(=O)N[C@@H](CCC(C)C)C(=O)N[C@@H](Cc1ccc(O)cc1)C(=O)N[C@H]1CSSC[C@@H](C(=O)N[C@@H](Cc2c[nH]c3ccc(C)cc23)C(=O)N[C@@H](Cc2ccccc2)C(=O)N[C@H](C(=O)N[C@H](CCCCNC(=O)CN2CCN(CC(=O)O)CCN(CC(=O)O)CCN(CC(=O)O)CC2)C(=O)O)C(C)(C)O)NC(=O)[C@H](Cc2ccc(O)cc2)NC(=O)[C@H](C(C)C)NC(=O)[C@H](CC(=O)O)NC(=O)[C@H](CC2CCOCC2)NC(=O)[C@H](CC2CCNCC2)NC(=O)CNC(=O)[C@H](C(C)(C)C)NC1=O [compound 471, Ac-hLeu-Y-C-Tbg-G-PipAla-ThpA-D-V-Y-C-5MeW-F-hydroxyVal-dLys(DOTA)-COOH] (Ac-[hLeu]YC[Tle]G[Ala(piperidin-4-yl)][Ala(4-THP)]DVYC[Trp(5-Me)]F[Val(3-OH)][dK](DOTA)-OH; disulfide 3-11)"
